Results taken from US11608335B2, “Somatostatin modulators and uses thereof” (CRINETICS PHARMACEUTICALS, INC., priority 2018, dated 2023).
Like-named read-outs stand apart in the source and are kept apart here.

What was measured:
[1] = target: human somatostatin receptor subtype 5 (Homo sapiens, UniProt P35346); experiment: cAMP assay for SST5R (inhibition of cAMP via human SST5 receptor)
Experimental: cAMP Assay Protocol for SST5R:
The cells are cultured at 37° C., 5% CO2 and 95% humidity. […] The cells are incubated for 20 minutes at 37° C. […] The cells are treated with 50 μL of lysis buffer (HRTF cAMP kit, Cisbio) for 30 minutes and then the lysate is diluted to 250 μL with assay buffer. The lysate is transferred to 384-well plates and cAMP detection and visualization antibodies are added and incubated for 1-24 hours at room temperature. The time-resolved fluorescent signal is read with a Tecan M1000Pro multiplate reader. The intracellular cAMP concentrations are calculated by regression to a standard curve and are plotted vs. the concentration of the compounds of the invention and the EC50 of the compounds are calculated using standard methods. All data manipulations are in GraphPad Prism v6 or v7.

[2] = target: T1, human somatostatin receptor subtype 2 (Homo sapiens, UniProt P30874); experiment: cAMP assay for SST2R (inhibition of cAMP via human SST2 receptor); assay type: cell-based; settings: Table B, read-out: SST2 potency
T1 construct: expressed in transfected cells
Excerpt: cAMP Assay Protocol for SST2R:

[3] = read-out: SST5 potency, inhibition of cAMP via human SST5 receptor, Table B

Sequence of human somatostatin receptor subtype 5 (P35346 whole entry): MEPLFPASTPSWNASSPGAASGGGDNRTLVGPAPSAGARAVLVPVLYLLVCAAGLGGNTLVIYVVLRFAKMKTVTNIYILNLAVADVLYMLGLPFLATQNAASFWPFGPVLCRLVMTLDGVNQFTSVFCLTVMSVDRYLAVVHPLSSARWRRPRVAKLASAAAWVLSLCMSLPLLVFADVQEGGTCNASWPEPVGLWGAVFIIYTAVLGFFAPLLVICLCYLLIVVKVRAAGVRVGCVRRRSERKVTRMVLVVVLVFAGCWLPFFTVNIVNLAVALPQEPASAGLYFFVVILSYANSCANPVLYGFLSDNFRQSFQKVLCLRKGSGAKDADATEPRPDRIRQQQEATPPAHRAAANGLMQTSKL
T1 sequence (P30874 whole entry): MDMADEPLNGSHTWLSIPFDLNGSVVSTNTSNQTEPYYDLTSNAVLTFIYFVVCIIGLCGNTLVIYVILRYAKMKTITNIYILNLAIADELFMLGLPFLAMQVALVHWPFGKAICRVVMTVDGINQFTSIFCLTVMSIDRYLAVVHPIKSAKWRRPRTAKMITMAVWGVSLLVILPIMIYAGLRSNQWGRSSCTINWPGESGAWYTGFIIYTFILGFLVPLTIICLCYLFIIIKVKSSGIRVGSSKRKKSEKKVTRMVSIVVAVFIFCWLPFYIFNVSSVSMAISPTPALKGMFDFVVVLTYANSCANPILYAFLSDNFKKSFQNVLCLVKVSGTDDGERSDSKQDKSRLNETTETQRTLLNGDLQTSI

Row | EC50 [1] | Fold selectivity for SST5 vs SST2 ([1]; SST5 over SST2, class symbols) | EC50 [1, 3] | EC50 [2] | Fold selectivity for SST5 vs SST2 ([1]; SST5 over SST2, given as number (comparison compounds)) | Compound
1 | < 10 nM | +++ (+++=≥500) | < 10 nM | 100 to 1000 nM |  | CCn1c(-c2cncc(-c3cccc(C#N)c3)c2N2CC[C@H](N)C2)nc2c(F)cccc21 [Compound 2-143, 3-{4-[(3S)-3-aminopyrrolidin-1-yl]-5-(1-ethyl-4-fluoro-1H-1,3-benzodiazol-2-yl)pyridin-3-yl}benzonitrile]
2 | < 10 nM | ++ (++=100 to 499) | < 10 nM | 100 to 1000 nM |  | N#Cc1cc(F)cc(-c2cncc(-c3nc4ccccc4[nH]3)c2N2CC[C@H](N)C2)c1 [Compound 2-109, 3-{4-[(3S)-3-aminopyrrolidin-1-yl]-5-(1H-1,3-benzodiazol-2-yl)pyridin-3-yl}-5-fluorobenzonitrile]
3 | < 10 nM | +++ (+++=≥500) | < 10 nM | > 1000 nM |  | CCn1c(-c2cncc(-c3cc(F)cc(C#N)c3)c2N2CC[C@H](N)C2)nc2c(F)cccc21 [Compound 2-144, 3-{4-[(3S)-3-aminopyrrolidin-1-yl]-5-(1-ethyl-4-fluoro-1H-1,3-benzodiazol-2-yl)pyridin-3-yl}-5-fluorobenzonitrile]
4 | < 10 nM | +++ (+++=≥500) | < 10 nM | > 1000 nM |  | Cn1c(-c2cncc(-c3cc(F)cc(C#N)c3)c2N2CC[C@H](N)C2)nc2c(Cl)cccc21 [Compound 2-116, 3-{4-[(3S)-3-aminopyrrolidin-1-yl]-5-(4-chloro-1-methyl-1H-1,3-benzodiazol-2-yl)pyridin-3-yl}-5-fluorobenzonitrile]
5 |  | +++ (+++=≥500) | < 10 nM | > 1000 nM |  | CC(N)C1CN(c2c(-c3cc(F)cc(C(F)(F)F)c3)cncc2-c2nc3cc(F)cc(F)c3[nH]2)C1 (stereo not drawn) [Compound 1-71, 1-{1-[3-(4,6-difluoro-1H-1,3-benzodiazol-2-yl)-5-[3-fluoro-5-(trifluoromethyl)phenyl]pyridin-4-yl]azetidin-3-yl}ethan-1-amine]
6 | < 10 nM | ++ (++=100 to 499) | < 10 nM | 100 to 1000 nM |  | Cc1cccc(-c2cncc(-c3nc4cccc(C)c4[nH]3)c2N2CC[C@H](N)C2)c1 [Compound 2-146, (3S)-1-[3-(4-methyl-1H-1,3-benzodiazol-2-yl)-5-(3-methylphenyl)pyridin-4-yl]pyrrolidin-3-amine]
7 | < 10 nM | +++ (+++=≥500) | < 10 nM | 100 to 1000 nM |  | N#Cc1cc(-c2cncc(-c3nc4ccc(F)c(F)c4[nH]3)c2N2CC[C@H](N)C2)ccc1F [Compound 2-52, 5-{4-[(3S)-3-aminopyrrolidin-1-yl]-5-(4,5-difluoro-1H-1,3-benzodiazol-2-yl)pyridin-3-yl}-2-fluorobenzonitrile]
8 | < 10 nM | +++ (+++=≥500) | < 10 nM | 100 to 1000 nM |  | C[C@]1(N)CCN(c2c(-c3ccnc(C#N)c3)cncc2-c2nc3cccc(C(F)(F)F)c3[nH]2)C1 [Compound 2-175, 4-[(3S)-3-amino-3-methylpyrrolidin-1-yl]-5-[7-(trifluoromethyl)-1H-1,3-benzodiazol-2-yl]-[3,4′-bipyridine]-2′-carbonitrile]
9 | < 10 nM | ++ (++=100 to 499) | < 10 nM | 10 to 100 nM |  | CC1(N)CCN(c2c(-c3cc(F)cc(Cl)c3)cncc2-c2nc3cccc(F)c3[nH]2)C1 (stereo not drawn) [Compound 2-4, 1-[3-(3-chloro-5-fluorophenyl)-5-(4-fluoro-1H-1,3-benzodiazol-2-yl)pyridin-4-yl]-3-methylpyrrolidin-3-amine]
10 | < 10 nM | +++ (+++=≥500) | < 10 nM | 100 to 1000 nM |  | Cc1cccc2nc(-c3cncc(-c4ccc(F)c(C#N)c4)c3N3CC[C@H](N)C3)[nH]c12 [Compound 2-37, 5-{4-[(3S)-3-aminopyrrolidin-1-yl]-5-(4-methyl-1H-1,3-benzodiazol-2-yl)pyridin-3-yl}-2-fluorobenzonitrile]
11 | 100 to 1000 nM |  |  | < 10 nM | 0.0008 | Cc1cc(F)cc(-c2cncc(-c3nc4cccc(Cl)c4[nH]3)c2N2CCC(N)CC2)c1
12 | < 10 nM | +++ (+++=≥500) | < 10 nM | > 1000 nM |  | C[C@]1(N)CCN(c2c(-c3ccc(F)c(C#N)c3)cncc2-c2nc3ncccc3[nH]2)C1 [Compound 2-167, 5-{4-[(3S)-3-amino-3-methylpyrrolidin-1-yl]-5-{1H-imidazo[4,5-b]pyridin-2-yl}pyridin-3-yl}-2-fluorobenzonitrile]
13 | < 10 nM | ++ (++=100 to 499) | < 10 nM | 100 to 1000 nM |  | Cc1ccnc2[nH]c(-c3cncc(-c4cccc(C#N)c4)c3N3CC[C@](C)(N)C3)nc12 [Compound 2-155, 3-{4-[(3S)-3-amino-3-methylpyrrolidin-1-yl]-5-{7-methyl-1H-imidazo[4,5-b]pyridin-2-yl}pyridin-3-yl}benzonitrile]
14 | < 10 nM | +++ (+++=≥500) | < 10 nM | > 1000 nM |  | NCC1CN(c2c(-c3cc(F)cc(Cl)c3)cncc2-c2nc3cc(F)cc(F)c3[nH]2)C1 [Compound 1-39, 1-{1-[3-(3-chloro-5-fluorophenyl)-5-(4,6-difluoro-1H-1,3-benzodiazol-2-yl)pyridin-4-yl]azetidin-3-yl}methanamine]
15 |  |  |  | > 1000 nM |  | Cc1cc(F)cc(-c2cncc(-c3nc4cc(F)ccc4[nH]3)c2N2CC(CN)C2)c1 [Compound 1-1, 1-{1-[3-(5-fluoro-1H-1,3-benzodiazol-2-yl)-5-(3-fluoro-5-methylphenyl)pyridin-4-yl]azetidin-3-yl}methanamine]
16 |  |  |  | 100 to 1000 nM |  | N[C@H]1CCN(c2c(-c3cc(F)cc(Cl)c3)cncc2-c2nc3c(F)cccc3[nH]2)C1 [Compound 2-3, (3 S)-1-[3-(3-chloro-5-fluorophenyl)-5-(4-fluoro-1H-1,3-benzodiazol-2-yl)pyridin-4-yl]pyrrolidin-3-amine]
17 |  |  |  | 100 to 1000 nM |  | Cc1cc(F)cc(-c2cncc(-c3nc4c(F)cccc4[nH]3)c2N2CC[C@H](N)C2)c1 [Compound 2-193, (3S)-1-[3-(4-fluoro-1H-1,3-benzodiazol-2-yl)-5-(3-fluoro-5-methylphenyl)pyridin-4-yl]pyrrolidin-3-amine]
18 |  |  |  | 100 to 1000 nM |  | Cc1cc(F)cc(-c2cncc(-c3nc4cc(F)cc(F)c4[nH]3)c2N2CCC(N)C2)c1 (stereo not drawn) [Compound 2-1, 1-[3-(4,6-difluoro-1H-1,3-benzodiazol-2-yl)-5-(3-fluoro-5-methylphenyl)pyridin-4-yl]pyrrolidin-3-amine]
19 |  |  |  | 100 to 1000 nM |  | Cc1cc(F)cc(-c2cncc(-c3nc4c(F)cc(F)cc4[nH]3)c2N2CC(C(C)N)C2)c1 (stereo not drawn) [Compound 1-42, 1-{1-[3-(4,6-difluoro-1H-1,3-benzodiazol-2-yl)-5-(3-fluoro-5-methylphenyl)pyridin-4-yl]azetidin-3-yl}ethan-1-amine]
20 |  |  |  | > 1000 nM |  | Cc1cc(F)cc(-c2cncc(-c3nc4c(F)c(F)ccc4[nH]3)c2N2CC(CN)C2)c1 [Compound 1-6, 1-{1-[3-(4,5-difluoro-1H-1,3-benzodiazol-2-yl)-5-(3-fluoro-5-methylphenyl)pyridin-4-yl]azetidin-3-yl}methanamine]
